Reference: US20190369111A1, “MOLECULAR KINETICS EVALUATION METHOD AND SCREENING METHOD” (Tokyo University of Science Foundation, priority 2016, published 2019)

Molecular target: T1, wild-type K-Ras protein (Mus musculus, UniProt P32883)
T1 construct: intraperitoneally administered to C57BL/6J wild-type mice; from tissue; host or cells: C57BL/6J wild-type mice: spleen, pancreas, liver, kidneys, colon, lungs, heart
Experiment: Degradation of wild-type K-Ras protein in each tissue of mouse after administration, Western blot analysis
Format: in vivo
Experimental: TUS-007 was dissolved in DMSO, and then dissolved in corn oil so that the concentration of DMSO was 10 vol %, and then intraperitoneally administered to C57BL/6J wild-type mice (8 to 9 weeks old, male) (CLEA Japan, Inc.) in an amount of 40 mg/kg body weight or 80 mg/kg body weight (n=3 to 4). Furthermore, in addition to a group in which TUS-007 was administered, a group in which Ras-SOS had been administered in a dose of 80 mg/kg body weight was prepared. As a control, an injection carrier (corn oil containing 10 vol % DMSO) was used. The mice were kept under an environment of ad libitum access to food and water. The mice were dissected under deep anesthesia by Somnopentyl (Kyoritsu Seiyaku Corporation) 48 hours after administration. Abdominal section was performed, and then the spleen, pancreas, liver, kidneys, colon, lungs, and heart were sequentially extracted and flash frozen in liquid nitrogen. Each tissue frozen in liquid nitrogen was stored in a deep freezer at −80° C.
The frozen tissues (spleen: 0.02 g, other tissues: 0.04 g) were each triturated, and then 500 μL of TKM tissue lysis buffer (50 mM triethanolamine (pH 7.8), 50 mM KCl, 5 mM MgCl2, 0.25 M sucrose, 1 mM PMSF, Protein Inhibitors Cocktail-EDTA free (Nacalai Tesque, Inc.), 1 mM DTT, and a recombinant RNase inhibitor (0.2 U/μL, Takara Bio) were added, and dissolved by rotation for 15 minutes (1 rpm, 25° C.). Then, the resultant product was subjected to centrifugation (at 13800 rpm×30 minutes, 4° C.), and the supernatants (each tissue extract) were collected. The concentration of the extracted proteins was quantified by a spectrophotometer.
Each tissue extract collected was subjected to Western blot analysis. An SDS-PAGE gel was prepared using TGX™ FastCast™ Acrylamide Kit, 12% (Bio-Rad). Electrophoresis samples were prepared in a 6×SDS-PAGE sample buffer (62.5 mM Tris-HCl pH 6.8, 2% SDS, 5% 2-mercaptoethanol, 10% glycerol, 0.25% BPB), and placed on a heat block at 95° C. for 5 minutes. Electrophoresis was performed at 160 V for 60 minutes (electrophoresis buffer; 195 mM glycine, 25 mM Tris).
After electrophoresis, proteins were transferred to a PVDF membrane (Immobion™-P, Millipore) under conditions of 100 V and 1.5 hours using a tank-type blotting device and a transfer buffer (25 mM Tris-HCl, 195 mM glycine, 0.01% SDS, 15% methanol). The membrane was split into two at the position of a 25 kDa marker. The membrane after transfer was shaken and blocked in 5% skim milk/TBS-T (100 mM Tris-HCl, 150 mM NaCl, 0.1% Tween-20, pH 7.6) at room temperature for 30 minutes. After blocking, a primary antibody reaction was performed in 5% skim milk/TBS-T. As the primary antibody, an anti-K-Ras antibody (sc-30, SantaCruz, diluted 500 times) and an anti-GAPDH antibody (sc-32233, SantaCruz, diluted 20000 times) were used. The membrane was shaken at room temperature for 60 minutes (anti-K-Ras antibody) or at 4° C. overnight (anti-GAPDH antibody), and then the membrane was washed with TBS-T for 5 minutes. It is noted that washing was performed four times. After the primary antibody reaction, a secondary antibody reaction was performed in 1% skim milk/TBS-T. The membrane was shaken at room temperature for 30 minutes, and then the membrane was washed with TBS-T for 5 minutes. It is noted that washing was performed four times. Furthermore, the membrane was washed with TBS (100 mM Tris-HCl, 150 mM NaCl, pH 7.6) for 10 minutes. Subsequently, the membrane was treated with a chemiluminescence reagent Immobilon™ Western (Millipore), and then chemiluminescence was detected using a lumino image analyzer LAS-3000 (FUJIFILM Corporation). Detected bands were quantified with an image processing software ImageJ (NIH).

T1 sequence (P32883 whole entry): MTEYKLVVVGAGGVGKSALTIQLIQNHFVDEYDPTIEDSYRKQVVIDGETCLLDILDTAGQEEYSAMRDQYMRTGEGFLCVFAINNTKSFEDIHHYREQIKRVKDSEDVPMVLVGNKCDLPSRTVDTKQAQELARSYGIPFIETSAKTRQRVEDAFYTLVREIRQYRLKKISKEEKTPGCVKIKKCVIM

In the case of `CC[C@@H](C)[C@H](NC(=O)CCCCCCNC(=O)[C@H](CC(C)C)NC(=O)CNC(=O)c1cc(Cl)ccc1Cl)C(=O)Nc1ccc2[nH]c(Cc3c[nH]c4ccccc34)nc2c1` [TUS-007], the “amount of wild-type K-Ras protein in colon” value (intraperitoneal 40 or 80 mg/kg body weight, 48 hours after administration, colon) is reported as “reduced in a concentration dependent manner”, the “amount of wild-type K-Ras protein in heart” value (intraperitoneal 40 or 80 mg/kg body weight, 48 hours after administration, heart) is reported as “not reduced” and the “amount of wild-type K-Ras protein in kidneys” value (intraperitoneal 40 or 80 mg/kg body weight, 48 hours after administration, kidneys) is reported as “reduced in a concentration dependent manner”. The “amount of wild-type K-Ras protein in liver” value (intraperitoneal 40 or 80 mg/kg body weight, 48 hours after administration, liver) was “not reduced”, the “amount of wild-type K-Ras protein in lungs” value (intraperitoneal 40 or 80 mg/kg body weight, 48 hours after administration, lungs) was “not reduced” and the “amount of wild-type K-Ras protein in pancreas” value (intraperitoneal 40 or 80 mg/kg body weight, 48 hours after administration, pancreas) was “reduced in a concentration dependent manner”. The “amount of wild-type K-Ras protein in spleen” value (intraperitoneal 40 or 80 mg/kg body weight, 48 hours after administration, spleen) was “reduced in a concentration dependent manner” and the “transfer property to tissues (molecular kinetics)” value (suggested from K-Ras degradation in tissues) was “showed a higher transfer property in the pancreas, colon, kidneys, and spleen as compared with the lungs, liver, and heart”.
